Experimental data as given in PMC5404560, “Towards Selective Mycobacterial ClpP1P2 Inhibitors with Reduced Activity against the Human Proteasome” (Antimicrobial Agents and Chemotherapy, 2017).
In brackets after ≈: the same amount, converted by molar mass.

Experiments:
[1] = test system: M. smegmatis ΔprcAB; format: cell-based; settings: 24 h exposure, OD600; concentration inhibiting 50% of growth
[2] = test system: M. smegmatis wild-type; test: Growth inhibition, M. smegmatis wild type; format: cell-based; settings: Mycolicibacterium smegmatis; wild-type strain
[3] = test system: M. tuberculosis H37Rv; test: microbe, parasite or virus in culture; format: cell-based; settings: Mycobacterium tuberculosis, H37RV, 120 h, 5 days
[4] = test system: Mycobacterium bovis BCG; test: microbe, parasite or virus in culture; format: cell-based; settings: Mycobacterium tuberculosis variant bovis BCG, read-out: MIC50 for Mycobacterium bovis BCG
[5] = MTS cytotoxicity assay, Vero; format: cell-based; settings: African green monkey
Method: (§1) The MTS (Promega) reduction assay was used according to manufacturer's guidelines to assess Vero (ATCC […]) and HepG2 (ATCC HB-8065) cell viability. […] Carbonyl cyanide m-chlorophenylhydrazone (CCCP) was used as a cytotoxic positive control. Cytotoxicity was determined twice in independent experiments.

[6] = MTS cytotoxicity assay, HepG2; format: cell-based, human; settings: human
Method: as §1

[7] = target: ClpP1P2 (Mycolicibacterium smegmatis, UniProt A0R197+A0R198); test: ClpP1P2 inhibition whole-cell RFP-SsrA reporter assay; settings: read-out: M. smegmatis ΔprcAB IC50 (μM) for ClpP1P2; whole-cell RFP-SsrA reporter, 3 h incubation
Sequence of ClpP1P2 (A0R198 4-203): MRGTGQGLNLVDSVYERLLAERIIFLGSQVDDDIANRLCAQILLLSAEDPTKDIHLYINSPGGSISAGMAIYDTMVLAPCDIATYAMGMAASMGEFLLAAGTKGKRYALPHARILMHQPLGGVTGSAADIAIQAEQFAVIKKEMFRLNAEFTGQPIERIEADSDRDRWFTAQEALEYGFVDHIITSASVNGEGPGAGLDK
Sequence of ClpP1P2 (A0R197 17-218): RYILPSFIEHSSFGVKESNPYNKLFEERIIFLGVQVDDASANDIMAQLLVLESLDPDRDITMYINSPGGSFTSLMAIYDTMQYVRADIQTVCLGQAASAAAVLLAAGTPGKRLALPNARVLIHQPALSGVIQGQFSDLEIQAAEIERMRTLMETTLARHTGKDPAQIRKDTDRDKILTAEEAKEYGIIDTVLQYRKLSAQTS

Question: Which “M. smegmatis ΔprcAB MIC50” value [1] does the source give for `CC(C)C[C@H](NC(=O)[C@H](Cc1ccccc1)NC(=O)c1cnccn1)B(O)O` [Compound 1, bortezomib, reference compound] here?
Answer: Its value is 6 ± 0 µM.

Question: What about the MIC50 [2] of the same compound?
Answer: Its MIC50 is 5 µM (≈ 1.92 µg/mL).

Question: And the MIC50 ([3]; read-out: MIC50 (μM) against M. tuberculosis H37Rv)?
Answer: Its MIC50 is 4.3 ± 1.3 µM (≈ 1.65 µg/mL).

Question: And the MIC90 ([3]; read-out: MIC90 (μM) against M. tuberculosis H37Rv)?
Answer: The MIC90 was 12 ± 0.5 µM (≈ 4.61 µg/mL).

Question: And the MIC50 [4]?
Answer: Its MIC50 is 1.8 µM (≈ 0.692 µg/mL).

Question: And the GI50 [5]?
Answer: The GI50 was 250 µM.

Question: And the GI50 [6]?
Answer: Its GI50 is 400 µM.

Question: And the IC50 [7]?
Answer: Its IC50 is 6 ± 0.5 µM.
